Active and inactive are the calls of the source. The calls are words filed in the database; no cut-off is given here.
Assays:
B16 [1] = assay: Induction of apoptosis in mouse B16 cells assessed as nuclear membrane lysis at 5 to 7 uM incubated for 24 hrs by Hoechst 33258 staining based fluorescence microscopy; format: functional, cell-based; settings: dose 5-7 µM
A-375 [2] = assay: Induction of apoptosis in human A-375 cells assessed as early apoptotic cells preincubated for 2 hrs with […] followed by compound addition and measured after 24 hrs by Annexin-V-FITC/PI-staining based flow cytometry (reference value: 3.1 %); format: functional
A-375 [3] = assay: Inhibition of colony formation in human A-375 cells assessed as reduction in number of colonies at 6 to 8 uM incubated for 24 hrs followed by replacement with fresh medium and measured after 14 days by crystal violet staining based analysis; format: functional, cell-based; settings: dose 6-8 µM
A-375 [4] = assay: Induction of apoptosis in human A-375 cells assessed as early apoptotic cells after 24 hrs by Annexin-V-FITC/PI-staining based flow cytometry (reference value: 3.1 %); format: functional
A-375 [5] = assay: Induction of apoptosis in human A-375 cells assessed as […] of Bax/Mcl-1 protein level at 6 to 8 uM incubated for 24 hrs by Western blot analysis; format: functional, cell-based; settings: dose 6-8 µM
A-375 [6] = assay: Inhibition of colony formation in human A-375 cells assessed as reduction in volume of colonies at 6 to 8 uM incubated for 24 hrs followed by replacement with fresh medium and measured after 14 days by crystal violet staining based analysis; format: functional, cell-based; settings: dose 6-8 µM
B16 [7] = assay: Induction of apoptosis in mouse B16 cells assessed as late apoptotic cells at 5 uM measured after 24 hrs by Annexin-V-FITC/PI-staining based flow cytometry (reference value: 4.4 %); format: functional
A-375 [8] = assay: Downregulation of Cyclin D1 protein expression in human A-375 cells at 6 to 8 uM measured after 12 to 24 hrs by western blot assay; format: functional, cell-based; settings: dose 6-8 µM, time 12-24 hrs
B16 [9] = assay: Induction of apoptosis in mouse B16 cells assessed as early apoptotic cells preincubated for 2 hrs with […] followed by compound addition and measured after 24 hrs by Annexin-V-FITC/PI-staining based flow cytometry (reference value: 0.9 %); format: functional
B16 [10] = assay: Cytotoxicity against mouse B16 cells assessed as decrease in number of adherent cells at 5 to 7 uM incubated for 24 hrs by phase contrast microscope analysis; format: functional, cell-based; settings: dose 5-7 µM
B16 [11] = assay: Induction of apoptosis in mouse B16 cells assessed as early apoptotic cells at 7 uM measured after 24 hrs by Annexin-V-FITC/PI-staining based flow cytometry (reference value: 0.5 %); format: functional
B16 [12] = assay: Induction of apoptosis in mouse B16 cells assessed as late apoptotic cells measured after 24 hrs by Annexin-V-FITC/PI-staining based flow cytometry (reference value: 5.7 %); format: functional
A-375 [13] = assay: Inhibition of autophagy in human A-375 cells harbouring mCherry-EGFP-LC3 assessed as increase in number of autophagosomes at 7 uM incubated for 8 to 24 hrs by laser scanning confocal microscopic analysis; format: functional, cell-based; settings: time 8-24 hrs, TDE = time-dependent effect
A-375 [14] = assay: Induction of apoptosis in human A-375 cells assessed as nuclear membrane lysis at 6 to 8 uM incubated for 24 hrs by Hoechst 33258 staining based fluorescence microscopy; format: functional, cell-based; settings: dose 6-8 µM
A-375 [15] = assay: Induction of apoptosis in human A-375 cells assessed as early apoptotic cells preincubated for 2 hrs with 3-MA followed by compound addition and measured after 24 hrs by Annexin-V-FITC/PI-staining based flow cytometry (reference value: 3.1 %); format: functional
B16 [16] = assay: Inhibition of colony formation in mouse B16 cells assessed as reduction in number of colonies at 5 to 7 uM incubated for 24 hrs followed by replacement with fresh medium and measured after 14 days by crystal violet staining based analysis; format: functional, cell-based; settings: dose 5-7 µM
A-375 [17] = assay: Induction of cell cycle arrest in human A-375 cells assessed as accumulation at S phase at 8 uM incubated for 24 hrs by PI staining based flow cytometry analysis (reference value: 28.83 %); format: functional
A-375 [18] = assay: Induction of apoptosis in human A-375 cells assessed as chromatin condensation at 6 to 8 uM incubated for 24 hrs by Hoechst 33258 staining based fluorescence microscopy; format: functional, cell-based; settings: dose 6-8 µM
A549 = assay: Cytotoxicity against human A549 cells assessed as reduction in cell viability by MTT assay; format: functional, cell-based
B16 [19] = assay: Cytotoxicity against mouse B16 cells assessed as change in cell morphology with loss of intercellular contacts at 5 to 7 uM incubated for 24 hrs by phase contrast microscope analysis; format: functional, cell-based; settings: dose 5-7 µM
A-375 [20] = assay: Induction of cell cycle arrest in human A-375 cells assessed as accumulation at G0/G1 phase incubated for 24 hrs by PI staining based flow cytometry analysis (reference value: 56.69 %); format: functional
A-375 [21] = assay: Induction of cell cycle arrest in human A-375 cells assessed as accumulation at S phase incubated for 24 hrs in presence of AG490 by PI staining based flow cytometry analysis (reference value: 34.44 %); format: functional
B16 [22] = assay: Induction of cell cycle arrest in mouse B16 cells assessed as accumulation at G2/M phase at 7 uM incubated for 24 hrs by PI staining based flow cytometry analysis (reference value: 4.70 %); format: functional
NCI-H1299 = assay: Cytotoxicity against human NCI-H1299 cells assessed as reduction in cell viability by MTT assay; format: functional, cell-based
A-375 [23] = assay: Upregulation of p53 accumulation in human A-375 cells at 6 to 8 uM measured after 12 to 24 hrs by western blot assay; format: functional, cell-based; settings: dose 6-8 µM, time 12-24 hrs
A-375 [24] = assay: Induction of autophagy in human A-375 cells assessed as increase in phosphorylated ACC at 7 uM incubated for 6 to 24 hrs by Western blotting analysis; format: functional, cell-based; settings: time 6-24 hrs

## COc1ccc2cc1Oc1ccc(cc1)C[C@H]1c3cc(c(OC)cc3CCN1C)Oc1c(OC)c(OC)c(OC)c3c1[C@H](C2)N(C)CC3 [HERNANDEZINE]
B16 [1]
  Activity: Active
A-375 [2]
  Activity: 34.8%
A-375 [3]
  inhibition: Active
A-375 [4]
  Activity: 19.6%
A-375 [5]
  Activity: Active
A-375 [6]
  inhibition: Active
B16 [7]
  Activity: 17.8%
A-375 [8]
  Activity: Active
B16 [9]
  Activity: 14.4%
B16 [10]
  Activity: Active
B16 [11]
  Activity: 16.4%
B16 [12]
  Activity: 20.6%
A-375 [13]
  inhibition: Tde
A-375 [14]
  Activity: Active
A-375 [15]
  Activity: 10.1%
B16 [16]
  inhibition: Active
A-375 [17]
  Activity: 19.2%
A-375 [18]
  Activity: Active
A549
  IC50: 7.59 µM
B16 [19]
  Activity: Active
A-375 [20]
  Activity: 63.87%
A-375 [21]
  Activity: 24.36%
B16 [22]
  Activity: 2.98%
NCI-H1299
  IC50: 6.74 µM
A-375 [23]
  Activity: Active
A-375 [24]
  Activity: Active
